Measured values from patent US11458187B2, “Extracellular histones as biomarkers for prognosis and molecular targets for therapy” (OKLAHOMA MEDICAL RESEARCH FOUNDATION, priority 2007, dated 2022).

What was measured:
[1] = severe sepsis; decreased from about 31%; cited from earlier work
calf thymus histone H3 = assay: Cleavage of purified histone H3 by APC (SDS-PAGE); format: biochemical; conditions: 100 μg/ml histone H3, indicated concentrations of human APC, 1 hr, 37° C.; FIG. 13C
Method: (FIG. 13C) Purified calf thymus histone H3 (top panel) or histone H4 (bottom panel) (100 μg/ml) was incubated in Opti-MEM medium with the indicated concentrations of human APC for 1 hr at 37° C. Samples were then subjected to SDS-PAGE and coomassie blue staining.

calf thymus histone H4 = target: T1, calf thymus histone H4 (Bos taurus, UniProt P62803); assay: Cleavage of purified histone H4 by APC (SDS-PAGE); format: biochemical; conditions: 37° C.
T1 construct: Purified calf thymus histone H3 (top panel) or histone H4 (bottom panel); purchased Roche; host or cells: calf thymus tissue
Method: 0.1 mg/ml histone H4 was incubated with 20 μg/ml human APC in PBS containing 1 mM CaCl2 and MgCl2 at 37° C. for 60 min. Sample was subjected to SDS-PAGE and GelCode Blue (PIERCE) staining or sent to matrix-assisted laser desorption ionization-time of flight facility at the University of Oklahoma Health Science Center for molecular weight determination.

[2] = system: baboons challenged with a lethal dose of E. coli; assay: Baboon model of sepsis, lethal dose of E. coli with or without infused APC; format: in vivo
Method: Six to 8 week male C57BL/6 mice (Jackson Lab) were used according to an animal protocol approved by Institutional Animal Care and Use Committees of the Oklahoma Medical Research Foundation. Baboon experiments were performed as previously described^5.
To test whether extracellular histones may be involved in the pathogenesis of diseases and if APC can cleave these histones in vivo, the inventors examined frozen archival plasma samples from a non-human primate model of sepsis in which baboons were challenged with a lethal dose of E. coli (Taylor et al., 1987). […] The inventors measured extracellular histones in the plasma from animals challenged with the lethal dose of E. coli either in the absence or presence of infused APC. Intact histone H3 was detected by Western blot in the plasma of the two baboons challenged with the lethal dose of E. coli and reached about 15 μg/ml 8 hours post-challenge (FIG. 14E). The inventors were unable to measure other histones in the same way because those anti-histone antibodies were not adequately sensitive. The increase in histone H3 accompanied the onset of acute renal failure as indicated by a high serum creatinine level, 2.65+/−0.05 mg/dL (normal range: 0.7-1.4 mg/dL) 8 hours post-challenge. […] APC co-infusion protected renal function as indicated by the normal serum creatinine level, 1.15+/−0.15 mg/dL at 8 hours post-challenge. […]

mice = assay: Intravenous histone injection lethality in mice; format: in vivo, mouse; conditions: co-injection of 5 mg APC/kg with 75 mg/kg histones, n=5
Method: To test the toxic effect of histones in vivo, the inventors injected 75 mg/kg of histones intravenously into mice. […] The calculated histone H3 concentration in the circulation of mice injected with the lethal dose of histones is about 5 times higher than the histone H3 level detected in the baboon plasma 8 hr post challenge with E. coli. […] The ratio of APC to histone H3 used to rescue the mice in vivo is similar to the ratio of APC to histone H3 used in endothelial cytoprotection experiment in vitro.

[3] = system: baboons challenged with a lethal dose of E. coli; conditions: infusion of APC (Taylor et al., 1987); cited from earlier work
IL-8 = IL-8 production from endothelium (ELISA); format: cell-based, human; conditions: FIG. 9
Method: (§1) FIG. 9—Histones induce IL-8 production from endothelium. EA.hy926 cells were stimulated with histone (0.1 mg/ml) or histone H3, histone H4 (50 μg/ml) for 24 hr at 37° C. in the absence or presence of APC (6 μg/ml), Anti-TLR2, Anti-TLR4 (10 μg/ml). Conditioned medium was measured for IL-8 production by […] ELISA kit.

IL-6 = IL-6 production from endothelium (ELISA); format: cell-based, human; conditions: FIG. 8
Method: as §1, with “8—Histones” for “9—Histones”, “IL-6” for “IL-8”

[4] = APC 6 μg/ml, Anti-TLR2, Anti-TLR4 10 μg/ml, 24 hr
[5] = stimulation of EA.hy926 24 hr, serum-free, histones 0.1 mg/ml, histone H3 or H4 50 μg/ml

Substance | mortality [1] | cleavage of purified histone H3 (calf thymus histone H3) | cleavage of purified histone H4 (calf thymus histone H4; 100 μg/ml histone H4, indicated concentrations of human APC, 1 hr, FIG. 13C) | cleavage of purified histone H4 (calf thymus histone H4; 0.1 mg/ml histone H4, 20 μg/ml human APC, 60 min, 4-7 KD fragments, FIG. 4B) | serum creatinine level ([2]; 8 hours post-challenge, APC co-infusion, normal range 0.7-1.4 mg/dL, 2.65+/−0.05 without APC) | cleavage of extracellular histone H3 in plasma (Western blot) ([2]; two animals challenged with a lethal dose of E. coli and administered APC, FIG. 14E) | rescue from lethal dose of histones (mice) | survival of baboons [3] | inhibition of histone-induced IL-8 production (IL-8; [4]) | inhibition of histone-induced IL-6 production (IL-6; [4]) | IL-8 production (IL-8; [5]) | IL-6 production (IL-6; [5])
APC: Human recombinant APC (Xigris) purchased from Eli Lilly; drotrecogin alfa (activated protein C) | about 25% | cleaved histone H3 and H4 in a dose dependent fashion | cleaved histone H3 and H4 in a dose dependent fashion | also cleaved by APC | 1.15 ± 0.15 mg/dL | can cleave extracellular histones in vivo | rescued all of the mice | rescued these animals | completely inhibits histone effect on IL-6 and IL-8 production | completely inhibits histone effect on IL-6 and IL-8 production |  | 
Pam3CSK4 |  |  |  |  |  |  |  |  |  |  | have no effect | have no effect
